A short description of this series: Solubility of IPN in MXDA. Type of series: physicochemical. The note with it: in MXDA (meta-xylylenediamine) as solvent, at 70° C.

The source of these data is US7323597B2, “Method for the production of diaminoxylene by continuous hydrogenation of liquid phthalonitrile” (BASF Aktiengesellschaft, priority 2003, dated 2008).

`N#Cc1cccc(C#N)c1` [IPN, 1,3-dicyanobenzene]: the “solubility of IPN in MXDA” value is “approx. 20 % by weight”.
